pKi: −log10 of the molar value.
Key:
[1] = biological target: T1, human H3 receptor (Homo sapiens, UniProt Q9Y5N1); assay: H3 receptor binding, cloned human H3 receptor stably expressed in SK-N-MC cells; conditions: average of results
T1 construct: expressed in transfected cells
Method: (§1) Binding of compounds to the cloned human and rat H3 receptors, stably expressed in SK-N-MC cells, was performed as described by Barbier, A. J. et al. (Br. J. Pharmacol. 2004, 143(5), 649-661). Data for compounds tested in these assays are presented in Table 1 (human) and Table 2 (rat), as an average of the results obtained.

[2] = biological target: T2, rat H3 receptor (Rattus norvegicus, UniProt Q9QYN8); assay: H3 receptor binding, cloned rat H3 receptor stably expressed in SK-N-MC cells; conditions: average of results
T2 construct: expressed in transfected cells
Method: as §1

[3] = biological target: T1, human H3 receptor; assay: Cyclic AMP accumulation, SK-N-MC subline with reporter construct and human H3 receptor; type: cell-based; conditions: cAMP accumulation, SK-N-MC reporter cells expressing human H3; average of results; read-out: Human pA2 (converted)
From the text: (§2) Sublines of SK-N-MC cells were created that expressed a reporter construct and either the human or rat H3 receptor. The pA2 values were obtained as described by Barbier et al. (2004). Data for compounds tested in these assays are presented in Table 3, as an average of the results obtained (NT=not tested).

[4] = biological target: T2, rat H3 receptor; assay: Cyclic AMP accumulation, SK-N-MC subline with reporter construct and rat H3 receptor; type: cell-based; conditions: cAMP accumulation, SK-N-MC reporter cells expressing rat H3; average of results; read-out: Rat pA2 (converted)
From the text: as §2

T1 sequence (Q9Y5N1 whole entry): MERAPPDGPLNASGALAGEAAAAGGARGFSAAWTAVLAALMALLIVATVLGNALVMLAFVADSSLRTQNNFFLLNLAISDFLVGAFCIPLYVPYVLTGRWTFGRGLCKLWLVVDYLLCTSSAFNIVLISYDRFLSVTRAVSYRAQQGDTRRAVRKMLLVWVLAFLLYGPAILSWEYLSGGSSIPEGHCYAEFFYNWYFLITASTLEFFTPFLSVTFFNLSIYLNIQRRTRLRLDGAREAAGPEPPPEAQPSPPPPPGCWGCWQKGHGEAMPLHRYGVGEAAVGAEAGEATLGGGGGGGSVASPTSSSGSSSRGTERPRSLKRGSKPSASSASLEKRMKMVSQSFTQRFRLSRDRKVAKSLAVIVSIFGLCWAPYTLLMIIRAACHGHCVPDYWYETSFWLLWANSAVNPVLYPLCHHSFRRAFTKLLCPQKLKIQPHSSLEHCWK
T2 sequence (Q9QYN8 whole entry): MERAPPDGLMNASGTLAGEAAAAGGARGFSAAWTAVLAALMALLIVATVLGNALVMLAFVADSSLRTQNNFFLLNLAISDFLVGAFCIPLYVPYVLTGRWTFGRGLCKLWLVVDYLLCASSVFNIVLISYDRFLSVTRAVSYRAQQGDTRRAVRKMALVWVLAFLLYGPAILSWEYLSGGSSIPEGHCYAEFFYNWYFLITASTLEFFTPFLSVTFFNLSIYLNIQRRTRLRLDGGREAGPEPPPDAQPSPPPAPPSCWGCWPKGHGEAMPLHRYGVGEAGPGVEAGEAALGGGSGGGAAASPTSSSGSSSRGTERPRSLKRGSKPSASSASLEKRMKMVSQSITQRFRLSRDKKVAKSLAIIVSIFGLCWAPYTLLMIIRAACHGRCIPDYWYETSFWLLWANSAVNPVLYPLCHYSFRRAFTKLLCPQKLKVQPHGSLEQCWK

Row | Compound | pKi [1] | pKi [2] | Kb [3] | Kb [4]
1 | O=C(c1ccc(C(O)c2ccccc2)cc1)N1CCCN(C2CC2)CC1 (stereo not drawn) [Example 30, (4-Cyclopropyl-[1,4]diazepan-1-yl)-[4-(hydroxy-phenyl-methyl)-phenyl]-methanone] | 8.70 | 7.55 | 0.417 nM | 1.51 nM
2 | CC(C)N1CCCN(C(=O)c2ccc(C(O)C3CCCCC3)cc2)CC1 (stereo not drawn) [Example 7, [4-(Cyclohexyl-hydroxy-methyl)-phenyl]-(4-isopropyl-[1,4]diazepan-1-yl)-methanone] | 8.70 | 7.12 | 0.871 nM | 17.4 nM
3 | O=C(c1ccc(C(O)C2CCCCC2)cc1)N1CCCN(C2CC2)CC1 (stereo not drawn) [Example 27, [4-(Cyclohexyl-hydroxy-methyl)-phenyl]-(4-cyclopropyl-[1,4]diazepan-1-yl)-methanone] | 9.00 | 7.43 | 0.955 nM | 6.92 nM
